Laboratory results published in the NIST ThermoML archive (doi:10.1021/acs.jced.7b00191).
± gives the expanded uncertainty stated by the source.

Details: Liquid; Visual observation in an unstirred cell

Critical temperature [K] | SMILES
562.2 ± 2.8 | c1ccccc1 [benzene]
557.3 ± 2.8 | Fc1ccccc1 [fluorobenzene]
544 ± 2.8 | CC(C)CC(C)(C)C [2,2,4-trimethylpentane]

Continued, compound first:

SMILES | Critical temperature [K]
Clc1ccccc1Cl [1,2-dichlorobenzene] | 698.8 ± 2.8
CCCCCCC [heptane] | 540.6 ± 2.8
CCCCCC [hexane] | 507.4 ± 2.8
CCC(C)(C)C [2,2-dimethylbutane] | 489.4 ± 2.8
CCCCCCCC [octane] | 568.8 ± 2.8
